From publication PMC5573416, “Inhibiting mycobacterial tryptophan synthase by targeting the inter-subunit interface” (Scientific Reports, 2017)
In brackets after ≈: the same amount, converted by molar mass. Like-named read-outs stand apart in the source and are kept apart here.

Legend:
[1] = Property forecast index (ChromlogD pH 7.4 + number of aromatic rings); assay type: physicochemical
[2] = PAMPA
Mtb H37Rv [3] = conditions: mouse, in vivo
[4] = pH 7.4
Mtb H37Rv [5] = assay: microbe, parasite or virus in culture; assay type: cell-based, Mycobacterium tuberculosis; conditions: for MIC: Mycobacterium tuberculosis, H37RV, read-out: Mtb H37Rv MIC
M. bovis BCG = assay type: cell-based, Mycobacterium bovis BCG
[6] = biological target: PLP-induced tryptophan synthase complex (Mycobacterium tuberculosis, UniProt P9WFX9+P9WFY1); assay type: binding
[7] = biological target: T1, Mtb tryptophan synthase (TrpA and TrpB) (Mycobacterium tuberculosis, UniProt P9WFX9+P9WFY1); assay type: biochemical
Mycobacterium bovis BCG = assay: microbe, parasite or virus in culture; assay type: cell-based; conditions: Mycobacterium tuberculosis variant bovis BCG, read-out: MIC in M. bovis BCG
[8] = system: M. bovis BCG over-expressing constituents of the trp operon; assay type: cell-based; conditions: pVV16 trpA or trpB
physchem = conditions: pH 7.4, aqueous buffer, kinetic from dmso stock
in vitro = conditions: PAMPA
[9] = pH 7.4; remark: listed apart in the source
[10] = pH 7.4; remark: listed apart in the source
[11] = biological target: T1, Mtb tryptophan synthase (TrpA and TrpB); assay type: biochemical; remark: listed apart in the source
[12] = sum of chromatographic logD at pH = 7.4 + number of aromatic rings

T1 sequence (P9WFY1 whole entry): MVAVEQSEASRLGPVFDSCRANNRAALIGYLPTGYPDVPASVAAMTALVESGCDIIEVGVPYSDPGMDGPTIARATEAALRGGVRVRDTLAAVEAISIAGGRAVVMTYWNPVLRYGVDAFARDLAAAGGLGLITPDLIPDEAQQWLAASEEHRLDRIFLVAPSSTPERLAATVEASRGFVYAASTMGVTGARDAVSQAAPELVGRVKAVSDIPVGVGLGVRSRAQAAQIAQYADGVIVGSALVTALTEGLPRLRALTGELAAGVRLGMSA
T1 sequence (P9WFX9 12-421 limits assumed): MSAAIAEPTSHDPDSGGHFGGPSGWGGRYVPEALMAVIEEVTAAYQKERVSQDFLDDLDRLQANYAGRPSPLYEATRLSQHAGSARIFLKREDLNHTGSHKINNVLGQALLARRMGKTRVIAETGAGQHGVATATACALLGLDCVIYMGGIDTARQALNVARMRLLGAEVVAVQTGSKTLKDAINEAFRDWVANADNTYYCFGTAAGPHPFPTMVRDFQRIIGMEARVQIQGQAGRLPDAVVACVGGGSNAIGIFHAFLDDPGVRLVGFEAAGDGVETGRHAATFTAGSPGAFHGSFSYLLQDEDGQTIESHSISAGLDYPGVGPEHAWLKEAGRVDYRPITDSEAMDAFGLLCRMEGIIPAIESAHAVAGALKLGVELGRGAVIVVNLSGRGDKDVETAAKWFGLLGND
PLP-induced tryptophan synthase complex, sequence (P9WFY1 whole entry): as the sequence (P9WFY1 whole entry) above
PLP-induced tryptophan synthase complex, sequence (P9WFX9 12-421 limits assumed): as the sequence (P9WFX9 12-421 limits assumed) above

(3R,4R)-3-(4-(2-chlorophenyl)piperidin-1-yl)-4-hydroxytetrahydrothiophene 1,1-dioxide [Compound 4]
PFI [1, 12]: 5.43
AMP Permeability [2]: 62.5 ×10⁻⁶ cm/s
Efficacy response in acute infection assay (Mtb H37Rv [3]): proved to be efficacious
Reduction of log CFU compared with untreated mice (Mtb H37Rv [3]; po, 350 mg/kg): 1.4 log colony forming units (CFU)
Tolerability in infected mice (Mtb H37Rv [3]; po, 500 mg/kg): had to be withdrawn due to adverse effects
CLND Solubility [4]: 434 µM
Mtb H37Rv MIC (Mtb H37Rv [5]): 2.25 µM
HepG2 Tox50 (HepG2 cells): >100 µM

CNS(=O)(=O)c1ccc2c(c1)CCN2C(=O)c1ccccc1F [Compound 2]
L-tryptophan rescue of inhibition (M. bovis BCG): L-tryptophan rescued the inhibition
PFI [1]: 5.80
Binding to PLP-induced tryptophan synthase complex [6]: binding of both inhibitors
L-tryptophan synthesis in presence of inhibitor (TLC) [7]: markedly decreased
CLND Solubility [4]: enhanced solubility
MIC (Mycobacterium bovis BCG): 5 µM (≈ 1.67 µg/mL)
Effect on MIC of over-expression of the individual WT subunits [8]: did not alter the MIC
solubility (physchem): 140 µM (≈ 46.8 µg/mL)
MIC (Mtb H37Rv [5]): 5.6 µM (≈ 1.87 µg/mL)
Papp (in vitro): 26 ×10⁻⁶ cm/s
HepG2 Tox50 (HepG2 cells; human): >100 µM

NNC(=O)c1ccncc1 [Isoniazid, isoniazid, reference compound]
L-tryptophan rescue of inhibition (M. bovis BCG): L-tryptophan does not rescue the inhibition

O=S1(=O)C[C@H](O)[C@@H](N2CCN(c3ccccc3Cl)CC2)C1 [Compound 1, (3R,4R)-3-(4-(2-chlorophenyl)piperazin-1-yl)-4-hydroxytetrahydrothiophene 1,1-dioxide]
Cli mouse [9]: 15.7 mL/min/g
PFI [1, 12]: 4.53
MIC (Mycobacterium bovis BCG): 1 µM (≈ 0.331 µg/mL)
Effect on MIC of over-expression of the individual WT subunits [8]: did not alter the MIC
solubility (physchem): > 464 µM
MIC (Mtb H37Rv [5]): 0.76 µM (≈ 0.251 µg/mL)
Papp (in vitro): 38 ×10⁻⁶ cm/s
HepG2 Tox50 (HepG2 cells; human): >50 µM
Cli human [10]: 0.92 mL/min/g

(3R,4R)-3-(4-(2-chloro-4-fluorophenyl)piperidin-1-yl)-4-hydroxytetrahydrothiophene 1,1-dioxide [Compound 5]
PFI [1, 12]: 5.22
AMP Permeability [2]: 52 ×10⁻⁶ cm/s
Efficacy response in acute infection assay (Mtb H37Rv [3]; sc): did not show a statistically significant response
CLND Solubility [4]: 397 µM
Mtb H37Rv MIC (Mtb H37Rv [5]): 0.5 µM
HepG2 Tox50 (HepG2 cells): >100 µM

CNS(=O)(=O)c1ccc2c(c1)CCN2C(=O)c1ccc(C)s1 [Compound 3]
Cli mouse [9]: 27.1 mL/min/g
L-tryptophan rescue of inhibition (M. bovis BCG): L-tryptophan rescued the inhibition
Binding to PLP-induced tryptophan synthase complex [6]: binding of both inhibitors
CLND Solubility [4]: poor solubility
MIC (Mycobacterium bovis BCG): 0.7 µM (≈ 0.236 µg/mL)
Effect on MIC of over-expression of the individual WT subunits [8]: did not alter the MIC
solubility (physchem): 19 µM (≈ 6.39 µg/mL)
MIC (Mtb H37Rv [5]): 1.1 µM (≈ 0.37 µg/mL)
Papp (in vitro): 42.7 ×10⁻⁶ cm/s
HepG2 Tox50 (HepG2 cells; human): >100 µM
L-tryptophan produced in presence of inhibitor (GF-HPLC) [11]: significant decrease in the L-tryptophan produced
Cli human [10]: 1.9 mL/min/g
